# Target: nsp14 methyltransferase from SARS-CoV-2 (Severe acute respiratory syndrome coronavirus 2, UniProt P0DTD1)
# Assay: Nsp14 MTase activity inhibition in vitro (EchoMS assay)
# Type: biochemical
# Details: recombinant nsp14 protein expressed in E. coli; dose-response curve
row,SMILES,IC50 [nM]
1,"Cc1noc(-c2ccccc2)c1CSC[C@H]1O[C@@H](n2cc(C3C[C@@H]4CC[C@H]3C4)c3c(N)ncnc32)[C@H](O)[C@@H]1O (stereo in doubt) [Compound 136b, (2R,3R,4S,5S)-2-(4-Amino-5-((1S,4R)-bicyclo[2.2.1]heptan-2-yl)-7H-pyrrolo[2,3-d]pyrimidin-7-yl)-5-((((3-methyl-5-phenylisoxazol-4-yl)methyl)thio)methyl)tetrahydrofuran-3,4-diol]",100 to 500
2,"Cc1noc(-c2ccccc2)c1CSC[C@H]1O[C@@H](n2cc(-c3ccccc3)c3c(N)ncnc32)[C@H](O)[C@@H]1O [Compound 149, (2R,3R,4S,5S)-2-(4-Amino-5-phenyl-7H-pyrrolo[2,3-d]pyrimidin-7-yl)-5-((((3-methyl-5-phenylisoxazol-4-yl)methyl)thio)methyl)tetrahydrofuran-3,4-diol]",30 to 100
3,"Cc1csc(-c2ccccc2)c1CSC[C@H]1O[C@@H](n2ccc3c(N)ncnc32)[C@H](O)[C@@H]1O [Compound 53c, (2R,3R,4S,5S)-2-(4-Amino-7H-pyrrolo[2,3-d]pyrimidin-7-yl)-5-((((4-methyl-2-phenylthiophen-3-yl)methyl)thio)methyl)tetrahydrofuran-3,4-diol]",100 to 500
4,"Cc1noc(-c2ccccc2)c1CSC[C@H]1O[C@@H](n2cc(SC34CC5CC(CC(C5)C3)C4)c3c(N)ncnc32)[C@H](O)[C@@H]1O [Compound 191, (2R,3R,4S,5S)-2-(5-((Adamantan-1-yl)thio)-4-amino-7H-pyrrolo[2,3-d]pyrimidin-7-yl)-5-((((3-methyl-5-phenylisoxazol-4-yl)methyl)thio)methyl)tetrahydrofuran-3,4-diol]",100 to 500
5,"Cc1noc(-c2ccccc2)c1CSC[C@H]1O[C@@H](n2cc(C#Cc3cccnc3)c3c(N)ncnc32)[C@H](O)[C@@H]1O [Compound 170b, (2R,3R,4S,5S)-2-(4-Amino-5-(pyridin-3-ylethynyl)-7H-pyrrolo[2,3-d]pyrimidin-7-yl)-5-((((3-methyl-5-phenylisoxazol-4-yl)methyl)thio)methyl)tetrahydrofuran-3,4-diol]",10 to 30
6,"Cc1cccc(-c2ccccc2)c1CSC[C@H]1O[C@@H](n2ccc3c(N)ncnc32)[C@H](O)[C@@H]1O [Compound 58c, (2R,3R,4S,5S)-2-(4-Amino-7H-pyrrolo[2,3-d]pyrimidin-7-yl)-5-((((3-methyl-[1,1'-biphenyl]-2-yl)methyl)thio)methyl)tetrahydrofuran-3,4-diol]",500 to 2000
7,"Cc1nccc(-c2ccccc2)c1CSC[C@H]1O[C@@H](n2ccc3c(N)ncnc32)[C@H](O)[C@@H]1O [Compound 50c, (2R,3R,4S,5S)-2-(4-Amino-7H-pyrrolo[2,3-d]pyrimidin-7-yl)-5-((((2-methyl-4-phenylpyridin-3-yl)methyl)thio)methyl)tetrahydrofuran-3,4-diol]",100 to 500
8,"COc1ccc(-c2nc(C)c(CSC[C@H]3O[C@@H](n4ccc5c(N)ncnc54)[C@H](O)[C@@H]3O)c(-c3ccccc3)n2)cc1OC [Compound 119c, (2R,3R,4S,5S)-2-(4-Amino-7H-pyrrolo[2,3-d]pyrimidin-7-yl)-5-((((2-(3,4-dimethoxyphenyl)-4-methyl-6-phenylpyrimidin-5-yl)methyl)thio)methyl)tetrahydrofuran-3,4-diol]",30 to 100
9,"Cc1noc(-c2ccccc2)c1CSC[C@H]1O[C@@H](n2cc(-c3ccc([N+](=O)[O-])nc3)c3c(N)ncnc32)[C@H](O)[C@@H]1O [Compound 152, (2R,3R,4S,5S)-2-(4-Amino-5-(6-nitropyridin-3-yl)-7H-pyrrolo[2,3-d]pyrimidin-7-yl)-5-((((3-methyl-5-phenylisoxazol-4-yl)methyl)thio)methyl)tetrahydrofuran-3,4-diol]",30 to 100
10,"Cn1cnc(-c2ccccc2)c1CSC[C@H]1O[C@@H](n2cc(I)c3c(N)ncnc32)[C@H](O)[C@@H]1O [Compound 244, (2R,3R,4S,5S)-2-(4-Amino-5-iodo-7H-pyrrolo[2,3-d]pyrimidin-7-yl)-5-((((1-methyl-4-phenyl-1H-imidazol-5-yl)methyl)thio)methyl)tetrahydrofuran-3,4-diol]",10 to 30
11,"Cc1noc(-c2ccccc2)c1CSC[C@H]1O[C@@H](n2nc(-c3ccc(CC#N)cc3)c3c(N)ncnc32)[C@H](O)[C@@H]1O [Compound 222b, 2-(4-(4-Amino-1-((2R,3R,4S,5S)-3,4-dlhydroxy-5-((((3-methyl-5-phenylisoxazol-4-yl)methyl)thio)methyl)tetrahydrofuran-2-yl)-1H-pyrazolo[3,4-d]pyrimidin-3-yl)phenyl)acetonitrile]",10 to 30
12,"Cc1noc(-c2ccccc2)c1CSC[C@H]1O[C@@H](n2cc(C3CCCC3)c3c(N)ncnc32)[C@H](O)[C@@H]1O [Compound 133b, (2R,3R,4S,5S)-2-(4-Amino-5-cyclopentyl-7H-pyrrolo[2,3-d]pyrimidin-7-yl)-5-((((3-methyl-5-phenylisoxazol-4-yl)methyl)thio)methyl)tetrahydrofuran-3,4-diol]",100 to 500
13,Cc1noc(-c2ccccc2)c1CSC[C@H]1O[C@@H](n2cc(-c3ccc([N+](=O)[O-])cc3)c3c(N)ncnc32)[C@H](O)[C@@H]1O [Compound 144b],30 to 100
14,"Cc1ncc(-c2cn([C@@H]3O[C@H](CSCc4c(C)noc4-c4ccccc4)[C@@H](O)[C@H]3O)c3ncnc(N)c23)s1 [Compound 156, (2R,3R,4S,5S)-2-(4-Amino-5-(2-methylthiazol-5-yl)-7H-pyrrolo[2,3-d]pyrimidin-7-yl)-5-((((3-methyl-5-phenylisoxazol-4-yl)methyl)thio)methyl)tetrahydrofuran-3,4-diol]",10 to 30
15,"Cc1noc(-c2ccccc2)c1CSC[C@H]1O[C@@H](n2nc(-c3cccc(C#N)c3)c3c(N)ncnc32)[C@H](O)[C@@H]1O [Compound 220b, 3-(4-Amino-1-((2R,3R,4S,5S)-3,4-dihydroxy-5-((((3-methyl-5-phenylisoxazol-4-yl)methyl)thio)methyl)tetrahydrofuran-2-yl)-1H-pyrazolo[3,4-d]pyrimidin-3-yl)benzonitrile]",100 to 500
16,Cc1noc(-c2ccccc2)c1CSC[C@H]1O[C@@H](n2cc(-c3ccco3)c3c(N)ncnc32)[C@H](O)[C@@H]1O [Compound 153],30 to 100
17,COc1ccc(-c2cn([C@@H]3O[C@H](CSCc4c(C)noc4-c4ccccc4)[C@@H](O)[C@H]3O)c3ncnc(N)c23)cc1OC [Compound 147b],10 to 30
18,"Nc1ncnc2c1ccn2[C@@H]1O[C@H](CSCc2[nH]cnc2-c2ccccc2)[C@@H](O)[C@H]1O [Compound 104c, (2R,3R,4S,5S)-2-(4-Amino-7H-pyrrolo[2,3-d]pyrimidin-7-yl)-5-((((4-phenyl-1H-imidazol-5-yl)methyl)thio)methyl)tetrahydrofuran-3,4-diol]",500 to 2000
19,"Cc1noc(-c2ccccc2)c1CSC[C@H]1O[C@@H](n2cc(C3CCCCC3)c3c(N)ncnc32)[C@H](O)[C@@H]1O [Compound 134b, (2R,3R,4S,5S)-2-(4-Amino-5-cyclohexyl-7H-pyrrolo[2,3-d]pyrimidin-7-yl)-5-((((3-methyl-5-phenylisoxazol-4-yl)methyl)thio)methyl)tetrahydrofuran-3,4-diol]",100 to 500
20,"Cc1noc(-c2ccccc2)c1CSC[C@H]1O[C@@H](n2cc(-c3ccc(OC(F)(F)F)cc3)c3c(N)ncnc32)[C@H](O)[C@@H]1O [Compound 146b, (2R,3R,4S,5S)-2-(4-Amino-5-(4-(trifluoromethoxy)phenyl)-7H-pyrrolo[2,3-d]pyrimidin-7-yl)-5-((((3-methyl-5-phenylisoxazol-4-yl)methyl)thio)methyl)tetrahydrofuran-3,4-diol]",100 to 500
21,"Cc1noc(-c2ccc([N+](=O)[O-])cc2)c1CSC[C@H]1O[C@@H](n2ccc3c(N)ncnc32)[C@H](O)[C@@H]1O [Compound 93c, (2R,3R,4S,5S)-2-(4-Amino-7H-pyrrolo[2,3-d]pyrimidin-7-yl)-5-((((3-methyl-5-(4-nitrophenyl)isoxazol-4-yl)methyl)thio)methyl)tetrahydrofuran-3,4-diol]",100 to 500
22,"Cc1noc(-c2ccccc2)c1CSC[C@H]1O[C@@H](n2cc(SCc3ccccc3)c3c(N)ncnc32)[C@H](O)[C@@H]1O [Compound 190b, (2R,3R,4S,5S)-2-(4-Amino-5-(benzylthio)-7H-pyrrolo[2,3-d]pyrimidin-7-yl)-5-((((3-methyl-5-phenylisoxazol-4-yl)methyl)thio)methyl)tetrahydrofuran-3,4-diol]",100 to 500
23,"COc1ccc(-c2onc(C)c2CSC[C@H]2O[C@@H](n3ccc4c(N)ncnc43)[C@H](O)[C@@H]2O)cc1 [Compound 94c, (2R,3R,4S,5S)-2-(4-Amino-7H-pyrrolo[2,3-d]pyrimidin-7-yl)-5-((((5-(4-methoxyphenyl)-3-methylisoxazol-4-yl)methyl)thio)methyl)tetrahydrofuran-3,4-diol]",10 to 30
24,"Cc1nsc(-c2ccccc2)c1CSC[C@H]1O[C@@H](n2cc(C#Cc3cncnc3)c3c(N)ncnc32)[C@H](O)[C@@H]1O [Compound 238c, (2R,3R,4S,5S)-2-(4-Amino-5-(pyrimidin-5-ylethynyl)-7H-pyrrolo[2,3-d]pyrimidin-7-yl)-5-((((3-methyl-5-phenylisothiazol-4-yl)methyl)thio)methyl)tetrahydrofuran-3,4-diol]",30 to 100
25,Cc1noc(-c2ccccc2)c1CSC[C@H]1O[C@@H](n2cc(-c3ccc(N)cc3)c3c(N)ncnc32)[C@H](O)[C@@H]1O [Compound 157],30 to 100
26,"Cn1cnc(-c2ccccc2)c1CSC[C@H]1O[C@@H](n2cc(-c3ccc(C#N)cc3)c3c(N)ncnc32)[C@H](O)[C@@H]1O [Compound 230b, 4-(4-Amino-7-((2R,3R,4S,5S)-3,4-dihydroxy-5-((((1-methyl-4-phenyl-1H-imidazol-5-yl)methyl)thio)methyl)tetrahydrofuran-2-yl)-7H-pyrrolo[2,3-d]pyrimidin-5-yl)benzonitrile]",100 to 500
27,"Cc1noc(-c2ccccc2)c1CSC[C@H]1O[C@@H](n2cc(Cc3ccccc3)c3c(N)ncnc32)[C@H](O)[C@@H]1O [Compound 185b, (2R,3R,4S,5S)-2-(4-Amino-5-benzyl-7H-pyrrolo[2,3-d]pyrimidin-7-yl)-5-((((3-methyl-5-phenylisoxazol-4-yl)methyl)thio)methyl)tetrahydrofuran-3,4-diol]",100 to 500

# — patent EP4553080A1, “NUCLEOSIDE DERIVATIVES AS ANTIVIRAL AGENTS AGAINST CORONAVIRUSES” (Ustav Organicke Chemie a Biochemie AV CR, v.v.i., priority 2023, dated 2025)
